The values below are quoted from earlier work in patent publication US20230349886A1, “SYSTEMS AND METHODS FOR PREDICTING CARDIOTOXICITY OF MOLECULAR PARAMETERS OF A COMPOUND BASED ON MACHINE LEARNING ALGORITHMS” (UTI Limited Partnership, priority 2015, published 2023).

Where two headings read alike, the source gives them in different places. Peptide text beside a SMILES is read from it.

The target of data set [1] is T1, Nav1.5 (Homo sapiens, UniProt Q14524). The conditions noted are these: Nav1.5 training/test/validation set; 92 actives and 860 inactive compounds; 1 = active.
For data set [2] the following is noted: for Free drug: experimental data file, Kramer et al. 2013.
The conditions of data set [3]: Brown dataset; flag given as 1 or 0.
Data set [4] concerns the target T1, Nav1.5.
Data set [5] has as its target Nav1.5 (Homo sapiens, UniProt Q14524, S234P/V215L).
The target in a further data set is Cav1.2 (Homo sapiens, UniProt Q13936). The note with it: for CAV1p2-maxinhib: maximal inhibition.
Sequence of Cav1.2 (Q13936 1-2138 isoform Q13936-12): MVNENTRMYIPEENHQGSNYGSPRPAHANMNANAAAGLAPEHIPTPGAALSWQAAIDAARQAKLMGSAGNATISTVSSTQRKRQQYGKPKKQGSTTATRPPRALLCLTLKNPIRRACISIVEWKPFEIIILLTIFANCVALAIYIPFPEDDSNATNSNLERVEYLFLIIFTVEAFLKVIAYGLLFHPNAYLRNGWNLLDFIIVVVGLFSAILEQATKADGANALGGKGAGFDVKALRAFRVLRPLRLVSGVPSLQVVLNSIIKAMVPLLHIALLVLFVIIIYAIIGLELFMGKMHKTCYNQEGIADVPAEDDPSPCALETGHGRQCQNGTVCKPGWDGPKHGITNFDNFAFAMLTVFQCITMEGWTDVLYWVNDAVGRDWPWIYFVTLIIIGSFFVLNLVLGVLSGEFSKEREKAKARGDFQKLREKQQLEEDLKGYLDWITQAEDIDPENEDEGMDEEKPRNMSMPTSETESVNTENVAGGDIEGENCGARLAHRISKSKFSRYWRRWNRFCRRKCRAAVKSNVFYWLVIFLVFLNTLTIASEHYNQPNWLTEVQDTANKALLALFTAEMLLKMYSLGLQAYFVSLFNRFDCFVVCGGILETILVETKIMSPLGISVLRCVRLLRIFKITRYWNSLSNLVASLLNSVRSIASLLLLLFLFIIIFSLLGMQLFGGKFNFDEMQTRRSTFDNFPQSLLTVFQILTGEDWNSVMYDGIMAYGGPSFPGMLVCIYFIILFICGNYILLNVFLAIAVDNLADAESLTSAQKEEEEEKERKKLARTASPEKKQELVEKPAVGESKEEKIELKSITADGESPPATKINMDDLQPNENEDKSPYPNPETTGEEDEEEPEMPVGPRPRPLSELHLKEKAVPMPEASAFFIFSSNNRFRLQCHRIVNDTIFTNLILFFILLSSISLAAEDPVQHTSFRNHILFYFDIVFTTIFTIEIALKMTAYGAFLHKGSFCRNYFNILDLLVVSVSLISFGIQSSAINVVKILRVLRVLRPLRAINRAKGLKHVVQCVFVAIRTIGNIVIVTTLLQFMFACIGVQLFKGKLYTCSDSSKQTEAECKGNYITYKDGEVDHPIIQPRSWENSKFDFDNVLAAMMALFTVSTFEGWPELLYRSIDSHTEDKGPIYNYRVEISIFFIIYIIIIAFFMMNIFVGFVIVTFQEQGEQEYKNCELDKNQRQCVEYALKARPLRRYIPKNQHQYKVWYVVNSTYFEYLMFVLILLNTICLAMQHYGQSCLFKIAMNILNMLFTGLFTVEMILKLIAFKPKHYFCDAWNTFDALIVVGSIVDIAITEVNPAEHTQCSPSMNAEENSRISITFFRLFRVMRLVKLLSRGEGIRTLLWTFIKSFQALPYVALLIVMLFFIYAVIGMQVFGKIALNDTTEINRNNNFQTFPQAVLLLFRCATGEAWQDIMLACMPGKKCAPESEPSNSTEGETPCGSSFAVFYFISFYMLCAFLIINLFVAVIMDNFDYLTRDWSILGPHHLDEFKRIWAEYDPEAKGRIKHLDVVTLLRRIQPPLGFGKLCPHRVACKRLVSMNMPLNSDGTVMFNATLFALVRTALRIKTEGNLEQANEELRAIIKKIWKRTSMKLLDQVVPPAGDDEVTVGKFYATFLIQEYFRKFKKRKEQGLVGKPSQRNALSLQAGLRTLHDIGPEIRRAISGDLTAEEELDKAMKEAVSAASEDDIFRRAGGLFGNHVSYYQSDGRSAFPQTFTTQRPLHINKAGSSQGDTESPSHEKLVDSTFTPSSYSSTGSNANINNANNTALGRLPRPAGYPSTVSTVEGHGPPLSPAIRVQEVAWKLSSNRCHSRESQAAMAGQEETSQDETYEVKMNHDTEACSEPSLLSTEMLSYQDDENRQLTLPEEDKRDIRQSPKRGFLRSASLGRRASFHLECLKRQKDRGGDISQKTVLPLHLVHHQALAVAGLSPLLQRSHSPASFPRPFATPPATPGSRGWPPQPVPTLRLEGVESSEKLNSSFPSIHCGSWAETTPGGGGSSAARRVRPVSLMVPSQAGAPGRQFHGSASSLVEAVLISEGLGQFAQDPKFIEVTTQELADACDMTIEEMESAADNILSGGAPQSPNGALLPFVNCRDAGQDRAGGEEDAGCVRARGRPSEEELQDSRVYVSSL
Sequence of Cav1.2 (Q08289 whole entry partner): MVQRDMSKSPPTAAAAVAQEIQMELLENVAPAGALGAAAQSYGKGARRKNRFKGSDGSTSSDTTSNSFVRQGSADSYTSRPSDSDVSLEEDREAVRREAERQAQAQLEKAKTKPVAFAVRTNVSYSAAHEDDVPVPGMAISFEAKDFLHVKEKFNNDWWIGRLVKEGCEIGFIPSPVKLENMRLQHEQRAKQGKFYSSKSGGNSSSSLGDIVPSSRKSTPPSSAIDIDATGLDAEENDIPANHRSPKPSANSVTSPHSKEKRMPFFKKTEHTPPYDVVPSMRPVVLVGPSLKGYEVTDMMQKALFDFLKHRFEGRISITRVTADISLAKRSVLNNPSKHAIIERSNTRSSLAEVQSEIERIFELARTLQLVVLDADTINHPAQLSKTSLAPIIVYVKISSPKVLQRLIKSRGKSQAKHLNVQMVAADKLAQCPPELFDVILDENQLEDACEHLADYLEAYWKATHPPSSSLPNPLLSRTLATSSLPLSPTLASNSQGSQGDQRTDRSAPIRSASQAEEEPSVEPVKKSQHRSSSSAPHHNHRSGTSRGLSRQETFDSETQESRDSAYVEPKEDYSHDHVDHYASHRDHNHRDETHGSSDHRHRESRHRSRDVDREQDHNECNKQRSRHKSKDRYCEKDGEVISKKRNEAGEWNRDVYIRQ
Sequence of Cav1.2 (P54289 25-946 partner limits assumed): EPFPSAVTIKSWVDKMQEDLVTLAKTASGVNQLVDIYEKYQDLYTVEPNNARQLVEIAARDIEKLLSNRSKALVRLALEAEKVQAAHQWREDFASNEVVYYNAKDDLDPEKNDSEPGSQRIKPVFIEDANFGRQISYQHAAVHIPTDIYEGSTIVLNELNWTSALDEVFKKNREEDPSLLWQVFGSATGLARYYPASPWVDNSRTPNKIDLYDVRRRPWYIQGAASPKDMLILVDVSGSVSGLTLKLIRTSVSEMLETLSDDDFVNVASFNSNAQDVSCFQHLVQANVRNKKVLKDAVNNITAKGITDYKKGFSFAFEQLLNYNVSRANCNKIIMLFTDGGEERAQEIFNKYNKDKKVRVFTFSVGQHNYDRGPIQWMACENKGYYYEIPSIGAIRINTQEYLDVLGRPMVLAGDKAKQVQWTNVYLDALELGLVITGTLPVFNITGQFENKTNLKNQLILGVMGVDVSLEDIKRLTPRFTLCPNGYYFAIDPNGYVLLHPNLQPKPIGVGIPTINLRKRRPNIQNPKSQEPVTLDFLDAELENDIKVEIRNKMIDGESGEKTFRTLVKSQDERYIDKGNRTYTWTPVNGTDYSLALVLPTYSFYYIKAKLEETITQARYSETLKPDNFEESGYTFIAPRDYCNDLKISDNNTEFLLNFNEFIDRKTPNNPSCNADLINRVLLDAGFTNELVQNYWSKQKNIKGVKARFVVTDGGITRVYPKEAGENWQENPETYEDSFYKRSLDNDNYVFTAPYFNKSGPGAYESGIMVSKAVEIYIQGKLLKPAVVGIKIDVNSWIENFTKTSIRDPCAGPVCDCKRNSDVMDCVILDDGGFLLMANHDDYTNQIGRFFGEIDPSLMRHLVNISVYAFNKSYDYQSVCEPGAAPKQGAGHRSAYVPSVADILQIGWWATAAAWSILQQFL
Sequence of Cav1.2 (P54289 947-1103 partner limits assumed): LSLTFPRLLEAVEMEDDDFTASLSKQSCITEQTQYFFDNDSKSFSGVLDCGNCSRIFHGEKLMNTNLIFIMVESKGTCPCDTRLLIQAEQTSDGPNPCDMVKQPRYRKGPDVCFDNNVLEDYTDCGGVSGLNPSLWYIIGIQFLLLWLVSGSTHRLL
Another data set concerns the target hERG (Homo sapiens, UniProt Q12809). The note with it: for HERG-maxinhib: maximal inhibition.
Where [6] appears, read: experimental data, Kramer et al. 2013.
Setting [7] is: maximal inhibition, Kramer et al. 2013.
Where [8] appears, read: read-out: NAV1p5-IC50, experimental data, Kramer et al. 2013.
[9] abbreviates: read-out: NAV1.5 IC50, Brown dataset.
The mark [10] stands for this setting: read-out: CAV1p2-IC50, experimental data, Kramer et al. 2013.
[11] abbreviates: read-out: CAV1.2 IC50, Brown dataset.
The mark [12] stands for this setting: Table 11, calculated from HERG-IC50 of the Kramer et al. 2013 data.
Where [13] appears, read: read-out: HERG IC50, Brown dataset.
[14] abbreviates: read-out: HERG-IC50, experimental data, Kramer et al. 2013.
Where [15] appears, read: Brown dataset, negative log of free drug concentration.

Sequence of hERG (Q12809 whole entry): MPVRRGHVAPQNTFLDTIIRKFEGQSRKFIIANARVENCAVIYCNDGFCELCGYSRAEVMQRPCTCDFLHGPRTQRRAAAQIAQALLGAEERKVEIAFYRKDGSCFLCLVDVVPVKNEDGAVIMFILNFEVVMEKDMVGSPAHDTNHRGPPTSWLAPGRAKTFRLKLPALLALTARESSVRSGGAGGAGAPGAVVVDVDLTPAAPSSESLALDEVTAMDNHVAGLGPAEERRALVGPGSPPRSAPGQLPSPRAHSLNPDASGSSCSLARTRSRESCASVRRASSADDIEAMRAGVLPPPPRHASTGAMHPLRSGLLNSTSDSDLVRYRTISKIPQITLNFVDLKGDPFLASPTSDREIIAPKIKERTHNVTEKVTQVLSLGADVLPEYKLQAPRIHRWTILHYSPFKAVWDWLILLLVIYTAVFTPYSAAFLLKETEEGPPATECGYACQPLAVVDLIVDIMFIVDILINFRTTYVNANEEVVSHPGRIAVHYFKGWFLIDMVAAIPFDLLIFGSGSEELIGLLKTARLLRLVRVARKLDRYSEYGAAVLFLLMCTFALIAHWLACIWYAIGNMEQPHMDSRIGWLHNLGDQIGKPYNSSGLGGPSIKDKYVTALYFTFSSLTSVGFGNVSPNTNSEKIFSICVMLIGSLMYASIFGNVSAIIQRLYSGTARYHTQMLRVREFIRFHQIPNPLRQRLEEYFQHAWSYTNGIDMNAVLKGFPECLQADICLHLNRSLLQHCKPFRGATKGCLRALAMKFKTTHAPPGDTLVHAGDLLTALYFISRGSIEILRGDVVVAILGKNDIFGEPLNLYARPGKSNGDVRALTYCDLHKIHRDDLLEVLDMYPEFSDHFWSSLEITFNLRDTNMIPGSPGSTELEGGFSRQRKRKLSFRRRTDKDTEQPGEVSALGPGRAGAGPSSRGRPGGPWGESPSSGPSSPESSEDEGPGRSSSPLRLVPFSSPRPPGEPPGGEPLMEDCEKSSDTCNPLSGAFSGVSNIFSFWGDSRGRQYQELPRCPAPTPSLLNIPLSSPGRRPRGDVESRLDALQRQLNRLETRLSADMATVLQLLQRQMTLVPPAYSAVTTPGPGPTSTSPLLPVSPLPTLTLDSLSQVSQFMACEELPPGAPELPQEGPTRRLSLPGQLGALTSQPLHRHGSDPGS

For `CCCCCC=C(c1cc(Cl)c(OC)c(C(=O)O)c1)c1cc(Cl)c(OC)c(C(=O)O)c1` [CHEMBL111622], the activity at Nav1.5 [1] was 1.
For `CC(C)[C@H](NC(=O)CN)C(=O)N[C@@H](CCC(N)=O)C(=O)O` [CHEMBL123454] (H-Gly-Val-Gln-OH), the activity at Nav1.5 [1] is reported as 1.
Turning to `CCCCCC=C(c1cc(C)c(OC)c(C(=O)OC)c1)c1cc(C)c(OC)c(C(=O)OC)c1` [CHEMBL335768], the activity on Nav1.5 [1] is on record as 1.
`O=C(O)CCCCCC/C=C/CO` [CHEMBL458520]: the activity at Nav1.5 [1] is 1.
Regarding `NC(=S)Nc1cccc(OCCCCCN2CCN(c3ccccc3-c3ccccc3)C2=S)c1` [CHEMBL569085], the activity result on Nav1.5 [1] is “Found 92 actives and 860 inactive compounds. 952 CHEMBL569085 1”.
As to `CCCCc1oc2ccccc2c1C(=O)c1cc(I)c(OCCN(CC)CC)c(I)c1` [amiodarone], the “Free drug” value in data set [2] is on record as 0.0008 µM. Further, in data set [2] (negative log of free drug), the pFD is on record as 9.097.
As to `COc1ccc(CCN2CCC(Nc3nc4ccccc4n3Cc3ccc(F)cc3)CC2)cc1` [astemizole], in data set [2], the “Free drug” value is 0.0003 µM. In addition, the pFD in data set [2] (negative log of free drug) is recorded as 9.523. For the same compound, the “Ris (TdP risk flag)” value in data set [3] was 1.
For the compound `CC(C)COCC(CN(Cc1ccccc1)c1ccccc1)N1CCCC1` (stereo not shown) [bepridil], in data set [2], the “Free drug” value is recorded as 0.035 µM. In addition, the pFD in data set [2] (negative log of free drug) is given as 7.456. Moreover, on Nav1.5 [4], the IC50 is 2.3 µM, the NAV1p5-maxinhib is 100, the NAV1p5-pIC50 is listed as 5.638 and the NAV1.5 max inhib was 100. The “NAV1.5 pIC50” value on Nav1.5 [5] was 5.6382 164. For the same compound, the CAV1.2 max inhib on Cav1.2 (Brown dataset) is 95.7. The CAV1p2-maxinhib on Cav1.2 (Kramer et al. 2013) was 95.7. Besides, in data set [3], the “Ris (TdP risk flag)” value is 1.
With `CO/N=C(\C(=O)N[C@@H]1C(=O)N2C(C(=O)O)=C(CSc3nc(=O)c(=O)[nH]n3C)CS[C@H]12)c1csc(N)n1` [ceftriaxone], the “Free drug” value in data set [2] is given as 23.17 µM. Also, the pFD in data set [2] (negative log of free drug) is 4.635. The NAV1.5 max inhib on Nav1.5 [4] (Brown dataset) is 14.3. On Nav1.5 [4] (setting [6]), the NAV1p5-pIC50 is listed as 3.255. For the same compound, the NAV1p5-maxinhib at Nav1.5 [4] (setting [7]) was 14.3. The half-maximal inhibitory concentration (IC50) on Nav1.5 [4] (setting [8]) was 556 µM; at Nav1.5 [4] (setting [9]), 555 µM; at Cav1.2 (setting [10]) it was 154 µM; at Cav1.2 (setting [11]) it was 154 µM; on hERG (setting [13]), 445 µM; at hERG (setting [14]), 446 µM. The CAV1.2 max inhib at Cav1.2 (Brown dataset) is 38.8. Besides, the CAV1p2-pIC50 at Cav1.2 (setting [6]) was 3.813. The CAV1p2-maxinhib on Cav1.2 (Kramer et al. 2013) is given as 38.8. The “HERG maxInhib” value at hERG (Brown dataset) was 7.5. Further, the negative-log IC50 (pIC50) on hERG (setting [12]) is 3.351. Further, the HERG-pIC50 on hERG (setting [6]) is on record as 3.351. In addition, the HERG-maxinhib on hERG (Kramer et al. 2013) is on record as 7.5. Also, in data set [3], the “Ris (TdP risk flag)” value is listed as 0.
As for `Cc1nc(Nc2ncc(C(=O)Nc3c(C)cccc3Cl)s2)cc(N2CCN(CCO)CC2)n1` [dasatinib], the pFD in data set [2] (setting [15]) was 1.387 ^-1614. In addition, the NAV1.5 max inhib at Nav1.5 [4] (Brown dataset) is 58.9. In addition, the CAV1.2 max inhib at Cav1.2 (Brown dataset) is recorded as 52.2. For the same compound, the “HERG maxInhib” value at hERG (Brown dataset) was 86.6. Also, the “Ris (TdP risk flag)” value in data set [3] is given as 0.
Regarding `CCCCCCCN(CC)CCCC(O)c1ccc(NS(C)(=O)=O)cc1` (stereo not shown) [ibutilide], the Free drug concentration in data set [2] (Brown dataset) is 140 nM. Moreover, the pFD in data set [2] (setting [15]) is on record as 6.853. The NAV1.5 max inhib at Nav1.5 [4] (Brown dataset) is 87.9. The concentration for half-maximal inhibition (IC50) at Nav1.5 [4] (setting [9]) is 42.5 µM. Besides, on Nav1.5 [5] (Brown dataset), the “NAV1.5 pIC50” value is recorded as 4.3716. Further, on Cav1.2 (Brown dataset), the CAV1.2 max inhib was 85.2 and the “CAV1.2 pIC50” value is recorded as 4.2041. Also, the IC50 at Cav1.2 (setting [11]) was 62.5 µM. In data set [3], the “Ris (TdP risk flag)” value is reported as 1.
Turning to `Fc1ccc([C@@H]2CCNC[C@H]2COc2ccc3c(c2)OCO3)cc1` [paroxetine], at Nav1.5 [4], the IC50 is 9.8 µM and the NAV1.5 max inhib is 93.7. In addition, at Nav1.5 [5], the “NAV1.5 pIC50” value is reported as 5.009 924. For the same compound, on Cav1.2, the CAV1.2 max inhib is 98.5, the “CAV1.2 pIC50” value is reported as 5.409 393 and the IC50 was 3.9 µM. For the same compound, at hERG (Brown dataset), the “HERG maxInhib” value was 99.5. Besides, in data set [3], the “Ris (TdP risk flag)” value is recorded as 1.
Consider `O=C1NC(=O)C(c2ccccc2)(c2ccccc2)N1` [phenytoin], for which, in data set [2] (Brown dataset), the Free drug concentration was 4360 nM. The NAV1.5 max inhib on Nav1.5 [4] (Brown dataset) is reported as 59.3. Further, the IC50 at Nav1.5 [4] (setting [9]) was 72.4 µM; at Cav1.2 (setting [11]) it was 21.9 µM. For the same compound, the CAV1.2 max inhib at Cav1.2 (Brown dataset) is 91.7. Further, the “HERG maxInhib” value on hERG was 16.4. In addition, the “Ris (TdP risk flag)” value in data set [3] was 0.
Consider `Cc1nc2n(c(=O)c1CCN1CCC(c3noc4cc(F)ccc34)CC1)CCCC2` [risperidone], for which the Free drug concentration in data set [2] (Brown dataset) is 0 nM. Besides, the “HERG maxInhib” value at hERG (Brown dataset) is recorded as 79.7. Further, the “Ris (TdP risk flag)” value in data set [3] was 1.
Take `N[C@@H](CC(=O)N1CCn2c(nnc2C(F)(F)F)C1)Cc1cc(F)c(F)cc1F` [sitagliptin]: the NAV1.5 max inhib at Nav1.5 [4] (Brown dataset) is 18.3. The IC50 on Nav1.5 [4] (setting [9]) was 1220 µM; at Cav1.2 (setting [11]), 147 µM. In addition, at Cav1.2 (Brown dataset), the CAV1.2 max inhib is 35.8. The “HERG maxInhib” value on hERG (Brown dataset) is given as 35.6. Also, the “Ris (TdP risk flag)” value in data set [3] is reported as 0.
Consider `C[C@@H]1CN(c2c(F)c(N)c3c(=O)c(C(=O)O)cn(C4CC4)c3c2F)C[C@H](C)N1` [sparfloxacin], for which, on Nav1.5 [4] (Brown dataset), the NAV1.5 max inhib was 0.8. The IC50 on Nav1.5 [4] (setting [9]) was 2560 µM. The CAV1.2 max inhib at Cav1.2 (Brown dataset) is 50.3. For the same compound, the IC50 at Cav1.2 (setting [11]) was 88.8 µM. At hERG, the “HERG maxInhib” value was 81.5, the “HERG pIC50” value is on record as 4.656 726, the IC50 was 22.1 µM and the pIC50 was 4.656. Moreover, in data set [3], the “Ris (TdP risk flag)” value is given as 1.
For chlorpromazine, the “Free drug” value in data set [2] was 0.038 µM. For the same compound, the pFD in data set [2] (negative log of free drug) is 7.42. For the same compound, the NAV1p5-pIC50 at Nav1.5 [4] (setting [6]) is on record as 5.523. In addition, the NAV1p5-maxinhib at Nav1.5 [4] (setting [7]) is 97.1. Besides, the IC50 on Nav1.5 [4] (setting [8]) is 3 µM; at Cav1.2 (setting [10]), 3.4 µM; on hERG (setting [14]), 1.5 µM. Also, the CAV1p2-pIC50 at Cav1.2 (setting [6]) was 5.469. Moreover, the CAV1p2-maxinhib on Cav1.2 (Kramer et al. 2013) is reported as 99.2. The pIC50 on hERG (setting [12]) is 5.824. Further, the HERG-pIC50 at hERG (setting [6]) is reported as 5.824. The HERG-maxinhib at hERG (Kramer et al. 2013) is given as 96.7.
As to cilostazol, at Nav1.5 [4] (Brown dataset), the NAV1.5 max inhib is recorded as 22.9. In addition, the values for the IC50 on Nav1.5 [4] (setting [9]), at Cav1.2 (setting [11]) and at hERG (setting [13]) were 93.7 µM, 91.2 µM and 13.8 µM, respectively. Besides, the CAV1.2 max inhib on Cav1.2 (Brown dataset) is recorded as 24.6. In addition, at hERG (Brown dataset), the “HERG maxInhib” value was 65.9. For the same compound, the pIC50 on hERG (setting [12]) is 4.86. The “Ris (TdP risk flag)” value in data set [3] is 1.
